# “And” between values parts separate entries of the source, which are not always exact repeats. Equal entries are not always repeated.
# Test: Tissue distribution by quantitative whole-body autoradiography (QWBA)
# Format: in vivo, male Sprague Dawley and Long-Evans rats
# Details: for Concentration of radioactivity: SD rat
# Protocol: The study utilized 4 groups of male SD rats (albino), and 3 groups of male LE rats (pigmented); a total of 39 rats. All animals were obtained from Hilltop Lab Animals, Inc. (Scottdale, Pa.). […] Rats in Group 5 were administered a single 2-h IV infusion of [^14C]brincidofovir at a target dose of 2 mg/kg. […] Three dosing formulations (one for high dose IV, one for low dose IV, and one for PO dose) were prepared at QPS on the day of dosing. The IV formulation for Groups 1, 2, 3, and 4 contained a vehicle of 10 mM sodium phosphate buffer in 5% dextrose solution at pH 8.0(±0.1).
# Each animal, at their respective termination time points, was euthanized for QWBA analysis immediately after blood collection. One rat per time point per Group was euthanized as listed below.
# The blood samples were maintained on wet ice (approximately 4° C.) and then centrifuged to obtain plasma within 1 h of the blood collection time. Centrifuge settings were recorded in the study notebook. Duplicate aliquots of plasma (0.050 mL) were analyzed for radioactivity using direct counting by LSC, and residual plasma was stored at approximately −70° C. and was saved for possible future analysis under a separate study protocol. Residual red blood cells were discarded as radioactive waste.
# The pinna, distal limbs, hair, and tail were removed from each frozen carcass and each frozen carcass was embedded in an aqueous suspension of approximately 2% (w/v) carboxymethylcellulose and frozen into a block. The blocks were stored at approximately −20° C. prior to sectioning. Each blocked carcass was mounted on the object stage of a cryomicrotome (Leica CM3600 Cryomacrocut, Nussloch, Germany and Vibratome 9800, St. Louis, Mo.) maintained at approximately −20° C. and internal standards (3), which were plasma fortified with [^14C]-glucose at one concentration (approximately 0.05 μCi/mL), were placed into the frozen blocks, prior to sectioning, and were used for section thickness quality control. A number of whole-body sections (approximately 40 μm thick) were taken in the sagittal plane at various levels of interest using a whole-body cryomicrotome set at −20° C. Sagittal sections (20-50 μm thick) of frozen carcasses were exposed to phosphor imaging plates. Regions of images in tissues were converted to concentrations using standards. All of the major tissues, organs, and biological fluids were represented.
# Tissue concentration data was determined for the following tissues and/or contents: adipose (brown and white), adrenal gland, bile (in duct), blood (cardiac), bone, bone marrow, brain (cerebrum, cerebellum, medulla), cecum (and contents), large intestine (and contents), epididymis, esophagus, eye (uvea and lens), Harderian gland, heart, kidney (cortex and medulla), liver, lung, lymph node, pancreas, pituitary gland, prostate gland, salivary gland, seminal vesicles, skeletal muscle, skin (pigmented and non-pigmented), small intestine (and contents), stomach (gastric mucosa and contents), spleen, spinal cord, testis, thymus, thyroid, and urinary bladder (and contents).
# The imaging plate and sections were placed in light-tight exposure cassettes, in a copper-lined lead safe, for a 4-day exposure at room temperature. […] Quantification was performed by image densitometry using MCD image analysis software (v. 7.0, Interfocus Imaging Ltd) and a standard curve constructed from the integrated response [i.e., Molecular Dynamics Counts per square millimeter (MDC/mm^2)] and the nominal concentrations of the ^14C-calibration standards. The concentrations of radioactivity were expressed as the μg equivalents of [^14C]brincidofovir per gram sample (μg equiv/g). A lower limit of quantification (LLOQ) was applied to the data (See section 6.7.4).
# Tissue concentrations that fell below the LLOQ were identified as being below the quantification limit (BQL). Tissue areas that were not visualized on autoradiographic images were identified as no sample (NS) and reported as BQL.
# [1] = Group 6 SD albino rats, oral 15 mg/kg, c2 2 h, c3 24 h, c4 168 h, LLOQ 0.034
structure (smiles),measurement,setting,value
CCCCCCCCCCCCCCCCOCCCOP(=O)(O)CO[C@H](CO)Cn1ccc(N)nc1=O [[^14C]brincidofovir],"Bile Cmax, IV relative to oral",15 mg/kg,14 times
same,"Small intestinal tissue concentration, IV relative to oral",15 mg/kg,approximately 1/10
same,"Small intestine Cmax, oral compared to IV",15 mg/kg,6 fold
same,Tissue t1/2: adrenal gland,15 mg/kg 2-h IV,254 h
same,Tissue t1/2: blood (cardiac),15 mg/kg 2-h IV,14.2 h
same,Tissue t1/2: bone marrow,15 mg/kg 2-h IV,276 h
same,Tissue t1/2: lymph node,15 mg/kg 2-h IV,345 h
same,Tissue t1/2: skin non-pigmented,15 mg/kg 2-h IV,310 h
same,Tissue t1/2: spleen,15 mg/kg 2-h IV,378 h
same,Tissue t1/2: adipose (brown),15 mg/kg PO,234 h
same,Tissue t1/2: esophagus,15 mg/kg PO,37.2 h
same,Tissue t1/2: lung,15 mg/kg PO,93 h
same,Tissue t1/2: pituitary gland,15 mg/kg PO,106 h
same,Tissue t1/2: small intestine,15 mg/kg PO,98.1 h
same,Tissue t1/2: spleen,15 mg/kg PO,115 h
same,Concentration of radioactivity,"Adipose (brown), 2 h, 15 mg/kg IV",2.088 μg equiv./g
same,Concentration of radioactivity,"Adipose (brown), 24 h, 15 mg/kg IV",0.473 μg equiv./g
same,Concentration of radioactivity,"Adipose (brown), 168 h, 15 mg/kg IV",0.391 μg equiv./g
same,Concentration of radioactivity,"Adipose (white), 2 h, 15 mg/kg IV",0.386 μg equiv./g
same,Concentration of radioactivity,"Adipose (white), 24 h, 15 mg/kg IV",0.135 μg equiv./g
same,Concentration of radioactivity,"Adipose (white), 168 h, 15 mg/kg IV",BQL (BQL = Value is below the LLOQ)
same,Concentration of radioactivity,"Adrenal Gland, 2 h, 15 mg/kg IV",4.308 μg equiv./g
same,Concentration of radioactivity,"Adrenal Gland, 24 h, 15 mg/kg IV",1.680 μg equiv./g
same,Concentration of radioactivity,"Adrenal Gland, 168 h, 15 mg/kg IV",0.647 μg equiv./g
same,Concentration of radioactivity,"Bile (in duct), 24 h, 15 mg/kg IV",1.469 μg equiv./g
same,Concentration of radioactivity,"Bile (in duct), 168 h, 15 mg/kg IV",0.058 μg equiv./g
same,Concentration of radioactivity,"Blood (cardiac), 2 h, 15 mg/kg IV",6.865 μg equiv./g
same,Concentration of radioactivity,"Blood (cardiac), 24 h, 15 mg/kg IV",0.308 μg equiv./g
same,Concentration of radioactivity,"Blood (cardiac), 168 h, 15 mg/kg IV",BQL (BQL = Value is below the LLOQ)
same,Concentration of radioactivity,"Bone Marrow, 2 h, 15 mg/kg IV",3.411 μg equiv./g
same,Concentration of radioactivity,"Bone Marrow, 24 h, 15 mg/kg IV",1.219 μg equiv./g
same,Concentration of radioactivity,"Bone Marrow, 168 h, 15 mg/kg IV",0.196 μg equiv./g
same,Concentration of radioactivity,"Bone, 2 h, 15 mg/kg IV",0.449 μg equiv./g
same,Concentration of radioactivity,"Bone, 24 h, 15 mg/kg IV",0.095 μg equiv./g
same,Concentration of radioactivity,"Bone, 168 h, 15 mg/kg IV",BQL (BQL = Value is below the LLOQ)
same,Concentration of radioactivity,"Brain (cerebellum), 2 h, 15 mg/kg IV",0.907 μg equiv./g
same,Concentration of radioactivity,"Brain (cerebellum), 24 h, 15 mg/kg IV",0.161 μg equiv./g
same,Concentration of radioactivity,"Brain (cerebellum), 168 h, 15 mg/kg IV",BQL (BQL = Value is below the LLOQ)
same,Concentration of radioactivity,"Brain (cerebrum), 2 h, 15 mg/kg IV",0.803 μg equiv./g
same,Concentration of radioactivity,"Brain (cerebrum), 24 h, 15 mg/kg IV",0.107 μg equiv./g
same,Concentration of radioactivity,"Brain (cerebrum), 168 h, 15 mg/kg IV",BQL (BQL = Value is below the LLOQ)
same,Concentration of radioactivity,"Brain (medulla), 2 h, 15 mg/kg IV",0.864 μg equiv./g
same,Concentration of radioactivity,"Brain (medulla), 24 h, 15 mg/kg IV",0.132 μg equiv./g
same,Concentration of radioactivity,"Brain (medulla), 168 h, 15 mg/kg IV",BQL (BQL = Value is below the LLOQ)
same,Concentration of radioactivity,"Cecum (contents), 2 h, 15 mg/kg IV",0.085 μg equiv./g
same,Concentration of radioactivity,"Cecum (contents), 24 h, 15 mg/kg IV",58.016 μg equiv./g
same,Concentration of radioactivity,"Cecum, 2 h, 15 mg/kg IV",3.658 μg equiv./g
same,Concentration of radioactivity,"Cecum, 24 h, 15 mg/kg IV",5.981 μg equiv./g
same,Concentration of radioactivity,"Cecum, 168 h, 15 mg/kg IV",0.099 μg equiv./g
same,Concentration of radioactivity,"Epididymis, 2 h, 15 mg/kg IV",2.391 μg equiv./g
same,Concentration of radioactivity,"Epididymis, 24 h, 15 mg/kg IV",0.566 μg equiv./g
same,Concentration of radioactivity,"Epididymis, 168 h, 15 mg/kg IV",0.234 μg equiv./g
same,"Concentration, Seminal Vesicles","G4 15 mg/kg IV, c3 2 h, c6 8 h, c9 24 h, c12 72 h",1.374 μg equiv/g tissue and 1.834 μg equiv/g tissue and 1.717 μg equiv/g tissue and 1.127 μg equiv/g tissue
same,"Concentration, Eye (lens)","G5 2 mg/kg IV, c2 2 h, c5 8 h, c8 24 h, c11 72 h, LLOQ 0.005",BQL
same,Urinary bladder contents,"Group 3, 2 h",47.0 μg equiv/g
same,Concentration at Tmax: kidney cortex,"Group 3 SD, 15 mg/kg 2-h IV",106.5 μg equiv/g
same,Concentration at Tmax: kidney medulla,"Group 3 SD, 15 mg/kg 2-h IV",33.4 μg equiv/g
same,Concentration at Tmax: liver,"Group 3 SD, 15 mg/kg 2-h IV",229.4 μg equiv/g
same,Concentration at Tmax: small intestine,"Group 3 SD, 15 mg/kg 2-h IV",43.7 μg equiv/g
same,Concentration at Tmax: urinary bladder,"Group 3 SD, 15 mg/kg 2-h IV",36.0 μg equiv/g
same,Highest observed concentration in blood,"Group 3 SD, 15 mg/kg IV, 2 h",6.9 μg equiv/g
same,Concentration in spleen at 840 h post-dose,"Group 4, 15 mg/kg IV",0.270 μg equiv/g
same,Urinary bladder contents,"Group 4, 4 h",814.4 μg equiv/g
same,Concentration at Tmax: kidney cortex,"Group 4 LE, 15 mg/kg 2-h IV",97.3 μg equiv/g
same,Concentration at Tmax: kidney medulla,"Group 4 LE, 15 mg/kg 2-h IV",27.0 μg equiv/g
same,Concentration at Tmax: liver,"Group 4 LE, 15 mg/kg 2-h IV",229.7 μg equiv/g
same,Concentration at Tmax: small intestine,"Group 4 LE, 15 mg/kg 2-h IV",71.0 μg equiv/g
same,Concentration at Tmax: urinary bladder,"Group 4 LE, 15 mg/kg 2-h IV",22.8 μg equiv/g
same,Highest observed concentration in blood,"Group 4 LE, 15 mg/kg IV, 2 h",5.3 μg equiv/g
same,Bile,"Group 5, 2 h",32.7 μg equiv/g
same,Urinary bladder contents,"Group 5, 2 h",22.9 μg equiv/g
same,Concentration at Tmax: kidney cortex,"Group 5 LE, 2 mg/kg 2-h IV",11.0 μg equiv/g
same,Concentration at Tmax: kidney medulla,"Group 5 LE, 2 mg/kg 2-h IV",3.4 μg equiv/g
same,Concentration at Tmax: large intestine,"Group 5 LE, 2 mg/kg 2-h IV",1.0 μg equiv/g
same,Concentration at Tmax: liver,"Group 5 LE, 2 mg/kg 2-h IV",34.2 μg equiv/g
same,Concentration at Tmax: small intestine,"Group 5 LE, 2 mg/kg 2-h IV",2.5 μg equiv/g
same,Highest observed concentration in blood,"Group 5 LE, 2 mg/kg IV, 2 h",0.771 μg equiv/g
same,Bile,"Group 6, 2 h",9.7 μg equiv/g
same,Urinary bladder contents,"Group 6, 24 h",39.9 μg equiv/g
same,"Concentration of radioactivity, Brain (cerebrum)",[1],BQL
same,"Concentration of radioactivity, Brain (medulla)",[1],BQL
same,"Concentration of radioactivity, Eye (lens)",[1],BQL
same,"Concentration of radioactivity, Spinal Cord",[1],BQL
same,"Concentration of radioactivity, Epididymis","Group 6 SD albino rats, oral 15 mg/kg, c2 2 h, c3 24 h, c4 168 h, LLOQ 0.034, 15 mg/kg",0.073 μg equiv./g and 0.091 μg equiv./g and 0.075 μg equiv./g
same,Concentration at Tmax: cecum,"Group 6 SD, 15 mg/kg PO",7.5 μg equiv/g
same,Concentration at Tmax: kidney cortex,"Group 6 SD, 15 mg/kg PO",18.4 μg equiv/g

# From patent US20170368082A1, “FORMULATIONS OF BRINCIDOFOVIR” (priority 2016, published 2017)
